Values joined by “and” are separate entries in the source; they are usually repeats but may differ in a detail not shown here. Equal values may be shown once.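 Where inhibition never reached the appropriate level, the endpoint shown equals the highest concentration tested. Otherwise, values were interpolated linearly from a five-concentration, 48-hour dose response in 96-well plates. GI50 = concentration required for 50% inhibition of growth. Definition used: TGI = concentration required for complete inhibition of growth.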
Tests used:
Test in all cases: inhibition of tumour cell growth, NCI panel, 48 h
[1] = tested on: U251 CNS
[2] = tested on: RPMI-8226 leukemia
[3] = tested on: CAKI-1 renal
[4] = tested on: HL-60(TB) leukemia
[5] = tested on: DU-145 prostate
[6] = tested on: TK-10 renal
[7] = tested on: NCI-H226 lung
[8] = tested on: OVCAR-4 ovarian
[9] = tested on: RXF 393 renal
[10] = tested on: KM20L2 colon
[11] = tested on: DMS 114 small cell lung

Row | Compound | GI50 [1] [µM] | TGI [1] | GI50 [2] [µM] | TGI [2] [µM] | GI50 [3] [µM] | TGI [3] | GI50 [4] [µM] | TGI [4] | GI50 [5] [µM] | TGI [5] | GI50 [6] [µM] | TGI [6] | GI50 [7] [µM] | TGI [7] | GI50 [8] [µM] | TGI [8] | GI50 [9] [µM] | TGI [9] | TGI [10] [µM] | TGI [11] [µM]
1 | C[C@H](Nc1ccc(C#N)n(C)c1=O)c1cc2cc(Cl)ccc2[nH]c1=O | 30 | > 100 µM | 14.2 | 49.3 | 19.6 | > 100 µM | 22.4 | 58.5 µM | 33 | > 100 µM | 37.8 | > 100 µM | 23.4 | > 100 µM | 19.3 | 85.6 µM | 13.3 | 67.7 µM | – | –
2 | NC(CCc1ccccc1)(C(=O)O)c1ccccc1 (stereo unspecified) | – | > 100 µM | – | – | – | > 100 µM | – | – | – | > 100 µM | – | > 100 µM | – | > 100 µM | – | > 100 µM | – | > 100 µM | – | –
3 | Cc1cc(N2CCOCC2)nc(N(CCCNc2ccnc3cc(Cl)ccc23)Cc2ccc3c(c2)OCO3)n1 | 0.936 | 2.12 µM | 1.45 | 4 | – | – | – | – | 1.43 | 2.93 µM | – | – | – | – | – | – | – | – | – | –
4 | Cn1c2c(c3c(=O)[nH]ncc31)CCc1ccccc1-2 | – | > 100 µM | – | 67.4 | – | > 100 µM | – | 60.6 µM | – | > 100 µM | – | 45.3 µM | – | 94.4 µM | – | > 100 µM | – | 39.6 µM | – | –
5 | CN(C)C/C=C(/c1ccc(Br)cc1)c1cccnc1 | – | > 100 µM | – | > 100 | – | > 100 µM | – | 0.0516 µM | – | > 100 µM | – | > 100 µM | – | > 100 µM | – | > 100 µM | – | > 100 µM | – | –
6 | CC(C)c1ccc2c(c1)[C@@]1(C)CC[C@H](C)C(C)(C)C1CC2 (stereo partly specified) | – | – | – | 41.1 | – | 50.6 µM | – | 63.6 µM | – | 59.4 µM | – | 33.1 µM | – | 32.3 µM | – | 30.3 µM | – | 33.2 µM | – | –
7 | NCCCCN | – | > 100 µM | – | – | – | 30.2 µM | – | > 100 µM | – | > 100 µM | – | > 100 µM | – | > 100 µM | – | 51.5 µM | – | > 100 µM | – | –
8 | CCCCCCOC(=O)C(N)Cc1ccc(OC)cc1 (stereo unspecified) | – | > 100 µM | – | – | – | > 100 µM | – | > 100 µM | – | > 100 µM | – | > 100 µM | – | > 100 µM | – | > 100 µM | – | > 100 µM | – | –
9 | COc1cccc(/C=N/[N-]C(N)=O)c1[O-].[Cu+2].[OH3+].c1cnc2c(c1)ccc1cccnc12 | – | 17.7 µM | – | 91.4 | – | 33.9 µM | 20 | 48.7 µM | – | – | – | 30.4 µM | – | 42.5 µM | – | 24.7 µM | – | – | > 100 | –
10 | CC(Br)C(=O)c1ccc2cc(Br)c3ccccc3c2c1 (stereo unspecified) | – | 26.5 µM | – | 21.2 | – | 30.1 µM | – | 37.5 µM | – | 31.3 µM | – | 33.1 µM | – | – | – | 32.2 µM | – | 30.2 µM | – | –
11 | CC(C)(C)c1ccc(O)c(Br)c1 | – | > 100 µM | – | > 100 | – | – | – | > 100 µM | – | > 100 µM | – | > 100 µM | – | > 100 µM | – | > 100 µM | – | > 100 µM | – | –
12 | O=P(O)(O)OP(=O)(O)O | – | > 100 µM | – | > 100 | – | > 100 µM | – | > 100 µM | – | > 100 µM | – | > 100 µM | – | – | – | > 100 µM | – | > 100 µM | – | –
13 | O=S1c2ccccc2N=C(c2ccc3ccccc3c2)CC1c1ccccc1 (stereo unspecified) | – | 32.6 µM | – | 94.4 | – | > 100 µM | – | 58.1 µM | – | – | – | 68.7 µM | – | 78.9 µM | – | 56.1 µM | – | – | 35.7 | –
14 | C/C(=C\CNc1ncnc2nc(Cl)[nH]c12)CO | – | – | – | > 100 | – | > 100 µM | – | > 100 µM | – | > 100 µM | – | > 100 µM | – | > 100 µM | – | > 100 µM | – | > 100 µM | – | –
15 | COC(=O)c1c(O)ccc2c1c1c(n2Cc2ccccn2)C(=O)c2ccccc2C1 | – | > 100 µM | – | 59.9 | – | > 100 µM | – | > 100 µM | – | > 100 µM | – | > 100 µM | – | > 100 µM | – | > 100 µM | – | > 100 µM | – | –
16 | Fc1cc(C2=C[C@H](c3ccc4c(c3)OCO4)NC(=S)N2)c(Cl)cc1Cl | – | > 100 µM | – | > 100 | – | > 100 µM | – | 0.23 µM | – | > 100 µM | – | 96.4 µM | – | > 100 µM | – | > 100 µM | – | > 100 µM | – | –
17 | CCOC(=O)C(=CNC(Cc1c[nH]c2ccccc12)C(=O)OC)C(=O)OCC (stereo unspecified) | – | > 100 µM | – | > 100 | – | > 100 µM | – | > 100 µM | – | – | – | > 100 µM | – | > 100 µM | – | – | – | – | > 100 | > 100
18 | COC(=N)C(C)C | – | > 100 µM | – | > 100 | – | > 100 µM | – | > 100 µM | – | – | – | > 100 µM | – | > 100 µM | – | > 100 µM | – | > 100 µM | > 100 | > 100
19 | CCOC(=O)C(C)OC(=O)c1ccc(C)cc1 (stereo unspecified) | – | > 100 µM | – | – | – | – | – | > 100 µM | – | – | – | > 100 µM | – | – | – | – | – | > 100 µM | > 100 | > 100
20 | Clc1ccc(NCc2nnc(COc3ccc(OCc4nnc(CNc5ccc(Cl)cc5)o4)c(Cl)c3)o2)cc1 | – | > 100 µM | – | 36.9 | – | > 100 µM | – | 27 µM | – | > 100 µM | – | > 100 µM | – | > 100 µM | – | – | – | > 100 µM | – | –
21 | O=C(CSc1nc2ccc(Cl)cc2c(=O)n1-c1ccccc1)N=Nc1c(O)[nH]c2ccc(F)cc12 | – | 3.27 µM | – | 3.9 | – | 11.6 µM | – | 7.25 µM | – | 4.85 µM | – | 15.5 µM | – | 12.6 µM | – | 5.65 µM | – | 4.26 µM | – | –
22 | COC1OC(C(=O)CP(=O)(OC)OC)C(OCc2ccccc2)C(OCc2ccccc2)C1OCc1ccccc1 (stereo unspecified) | – | 29 µM and 30.3 µM | – | – | – | 36 µM and 36.7 µM | – | 59.4 µM and 47 µM | – | 31.3 µM and 33.5 µM | – | 30.9 µM and 33.9 µM | – | 39.5 µM and 35.1 µM | – | 28.4 µM and 36.7 µM | – | 26.3 µM and 29.5 µM | – | –
23 | COc1cc(S(=O)(=O)N/N=C/C=C/c2ccccc2)c(OC)cc1NC(C)=O | – | – | – | 60.9 | – | > 100 µM | – | > 100 µM | – | > 100 µM | – | – | – | – | – | > 100 µM | – | > 100 µM | – | –
24 | CC(C)(C)OC(=O)N1C(C2=COc3ccccc3O2)=COc2cccnc21 | – | 3.13 µM | – | 4.43 | – | 6.82 µM | – | – | – | 2.76 µM | – | 7.72 µM | – | 4.31 µM | – | 4.2 µM | – | 3.06 µM | – | –
25 | O=c1oc2c(ccc3occc32)c(N2CCCCC2)c1-c1ccccc1 | – | > 100 µM | – | – | – | – | – | 80.1 µM | – | – | – | – | > 100 | > 100 µM | – | > 100 µM | – | > 100 µM | > 100 | > 100

From PubChem BioAssay (NCI)
